The species entered for this data set is Homo sapiens. Nature of the data set: Half life in human assessed as ZD-6126-phenol. As to conditions: in vivo. Type of data set: ADME, organism-based.

Take `COc1cc2c(c(OC)c1OC)-c1ccc(OP(=O)(O)O)cc1[C@@H](NC(C)=O)CC2` [ZD-6126]: the t1/2 is 2 h.

The record behind these values is ChEMBL document CHEMBL1142931, “Vascular disrupting agents” (Bioorg Med Chem, 2007).
